Converted amounts (≈) assume the structure as drawn.
What was measured:
Solubility in water = type: physicochemical; conditions: hydrochlorides or oxalates, read-out: solubilities (in water)
In short: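 Water solubility given for the hydrochloride salts of most compounds and for the oxalate salts of a few.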

[1] = system: Mycobacterium tuberculosis II 37 RV (typus humanus); assay: Efficacy against Mycobacteria, Tb-broth dilution series (Table I); type: cell-based; conditions: 504 h, Dubos Tb-broth + 10% bovine serum, 21 days, read-out: Minimum Inhibitory Concentration
C. albicans [2] = assay: Minimum inhibitory concentration for fungi in presence of serum, C. albicans (Table VI); type: cell-based; conditions: Candida albicans; Sabouraud nutrient broth + 10% bovine serum, 28°C, 48 hours
A. niger [3] = assay: Minimum inhibitory concentration for fungi in presence of serum, A. niger (Table VI); type: cell-based; conditions: Aspergillus niger; Sabouraud nutrient broth + 10% bovine serum, 28°C, 48 hours
Candida albicans = assay: Agar well inhibition zone test against fungi, Candida albicans (Table II); conditions: quantity per well giving inhibition zone (500, 50, 5 μg tested); Sabouraud agar, 28°, 48 hours
Protocol: The efficacy of the compounds against fungi was tested as follows:
The test organisms, in this case the blastomycete Candida albicans and the mold Aspergillus niger, were inoculated onto Sabouraud agar plates by pouring a photometrically adjusted standard suspension of organisms on the plate. After inoculation, wells with a diameter of 5.0 mm were punched in the agar, and filled with 50 ul of the compound solution mentioned before. The quantity of compound applied thus amounted to 500 μg, 50 μg and 5 μg. After incubation at 28° for 48 hours, the quantity of compound was determined at which an inhibition of the organism's growth, in form of an inhibition zone around the corresponding well, was present.

Aspergillus niger = assay: Agar well inhibition zone test against fungi, Aspergillus niger (Table II); conditions: quantity per well giving inhibition zone (500, 50, 5 μg tested); Sabouraud agar, 28°, 48 hours
Escherichia coli = assay: Agar well inhibition zone test against bacteria, Escherichia coli (Table III); conditions: quantity per well giving inhibition zone (500, 50, 5 μg tested); nutrient agar, 37°, 24 hours
A. niger [4] = assay: Minimum inhibitory concentration for fungi, tube dilution, A. niger (Table IV); conditions: Aspergillus niger, 48 h, read-out: Minimum Inhibitory Concentration, A. niger
Protocol: (§1) A tube dilution series of the respective compound in Sabouraud nutrient broth, whose individual tubes contained concentrations of 1024 μg, 512 μg, 256 μg, 128 μg, 64 μg, 32 μg, 16 μg, 8 μg, 4 μg, 2 μg, 1.1 μg and 0.5 μg/ml, was prepared and inoculated with a photometrically standardized suspension of the test organisms or the spores thereof.

C. albicans [5] = assay: Minimum inhibitory concentration for fungi, tube dilution, C. albicans (Table IV); conditions: Candida albicans, 48 h, read-out: Minimum Inhibitory Concentration, C. albicans
Protocol: as §1

Staphylococcus aureus = assay: Agar well inhibition zone test against bacteria, Staphylococcus aureus (Table III); conditions: quantity per well giving inhibition zone (500, 50, 5 μg tested); nutrient agar, 37°, 24 hours
Protocol: The efficacy of the compounds against bacteria was tested as follows:
The test organisms, in this case Staphylococcus aureus and Escherichia coli, were inoculated on nutrient agar as described in Example 12, wells were punched, and the solutions of the compounds were transferred to fill the wells. The quantity of compound in the wells amounted again to 500 μg, 50 μg and 5 μg.
After incubation a 37° for 24 hours the quantity of compound was determined at which an inhibition of the organism's growth, in the form of an inhibition zone around the corresponding well, occurred.

Staph. aureus = assay: Minimum inhibitory concentration for bacteria, tube dilution, Staph. aureus (Table V); conditions: Staphylococcus aureus, 48 h, read-out: Minimum Inhibitory Concentration, Staph. aureus
Protocol: A tube dilution series of the respective compound in nutrient broth whose individual tubes contained concentrations of 1024 μg, 512 μg, 256 μg, 128 μg, 64 μg, 32 μg, 1 μg, 8 μg, 4 μg, 2 μg, 1.1 μg and 0.5 μg/ml was prepared and inoculated with a photometrically standardized suspension of the test organisms.

E. coli = assay: Minimum inhibitory concentration for bacteria, tube dilution, E. coli (Table V); type: cell-based; conditions: Escherichia coli, 48 h, read-out: Minimum Inhibitory Concentration, E. coli

CC(C(=Cc1ccccc1)Cc1ccccc1)N1CCN(CCN2CCCCC2)CC1 (stereo not drawn) [XXX, 1-phenyl-2-benzyl-3-[4'-(β-piperidino-ethyl)-piperazino-1']-butene-1]
solubility (Solubility in water): 10 mg/mL (≈ 23900 µM)
MIC [1]: 50 µg/mL
MIC (C. albicans [2]): 256 µg/mL
MIC (A. niger [3]): 32 µg/mL
Inhibition Area at μg, Cand. albicans (Candida albicans): 50 µg
Inhibition Area at μg, Asp. niger (Aspergillus niger): 5 µg
Inhibition Area at μg, E. coli (Escherichia coli): 500 µg
MIC (A. niger [4]): 32 µg/mL (≈ 76.6 µM)
MIC (C. albicans [5]): 16 µg/mL (≈ 38.3 µM)
Inhibition Area at μg, Staph. aureus (Staphylococcus aureus): 50 µg
MIC (Staph. aureus): 128 µg/mL (≈ 306 µM)

CC(N1CCN(CCN2CCCC2)CC1)C(O)(Cc1ccccc1)Cc1ccccc1 (stereo not drawn) [III, 1-phenyl-2-benzyl-3-[4'-(β-pyrrolidino-ethyl)-piperazino-1']-butanol-2]
solubility (Solubility in water): 50 mg/mL (≈ 119000 µM)
MIC [1]: 50 µg/mL
MIC (C. albicans [2]): 64 µg/mL
MIC (A. niger [3]): 128 µg/mL
Inhibition Area at μg, Cand. albicans (Candida albicans): 50 µg
Inhibition Area at μg, Asp. niger (Aspergillus niger): 50 µg
Inhibition Area at μg, E. coli (Escherichia coli): 500 µg
MIC (A. niger [4]): 64 µg/mL (≈ 152 µM)
MIC (C. albicans [5]): 32 µg/mL (≈ 75.9 µM)
Inhibition Area at μg, Staph. aureus (Staphylococcus aureus): 50 µg
MIC (Staph. aureus): 512 µg/mL (≈ 1210 µM)

CC1CCCN(CCN2CCN(C(C)C(O)(Cc3ccccc3)Cc3ccccc3)CC2)C1 (stereo not drawn) [VIII, 1-phenyl-2-benzyl-3-{4'-[β-(3"-methyl-piperidino)-ethyl]-piperazino-1'}butanol-2]
solubility (Solubility in water): 50 mg/mL (≈ 111000 µM)
MIC [1]: 100 µg/mL
MIC (C. albicans [2]): 16 µg/mL
Inhibition Area at μg, Cand. albicans (Candida albicans): 50 µg
Inhibition Area at μg, Asp. niger (Aspergillus niger): 500 µg
Inhibition Area at μg, E. coli (Escherichia coli): > 500 µg
MIC (C. albicans [5]): 16 µg/mL (≈ 35.6 µM)
Inhibition Area at μg, Staph. aureus (Staphylococcus aureus): 50 µg
MIC (Staph. aureus): 512 µg/mL (≈ 1140 µM)

CC(N1CCN(CCN2CCN(Cc3ccccc3)CC2)CC1)C(O)(Cc1ccccc1)Cc1ccccc1 (stereo not drawn) [XII, 1-phenyl-2-benzyl-3-{4'-[β-(4"-benzyl-piperazino-1")-ethyl]-piperazino-1'}-butanol-2]
solubility (Solubility in water): 100 mg/mL (≈ 190000 µM)
MIC [1]: 100 µg/mL
MIC (C. albicans [2]): 256 µg/mL
MIC (A. niger [3]): > 1020 µg/mL
Inhibition Area at μg, Cand. albicans (Candida albicans): 5 µg
Inhibition Area at μg, Asp. niger (Aspergillus niger): 50 µg
Inhibition Area at μg, E. coli (Escherichia coli): 500 µg
MIC (A. niger [4]): 16 µg/mL (≈ 30.4 µM)
MIC (C. albicans [5]): 64 µg/mL (≈ 121 µM)
Inhibition Area at μg, Staph. aureus (Staphylococcus aureus): 50 µg
MIC (Staph. aureus): 64 µg/mL (≈ 121 µM)

CC1CCCCN1CCN1CCN(C(C)C(O)(Cc2ccccc2)Cc2ccccc2)CC1 (stereo not drawn) [VII, 1-phenyl-2-benzyl-3-{4'-[β-(2"-methyl-piperidino)-ethyl]-piperazino-1'}-butanol-2]
solubility (Solubility in water): 50 mg/mL (≈ 111000 µM)
MIC [1]: 10 µg/mL
MIC (C. albicans [2]): 32 µg/mL
Inhibition Area at μg, Cand. albicans (Candida albicans): 50 µg
Inhibition Area at μg, Asp. niger (Aspergillus niger): 500 µg
Inhibition Area at μg, E. coli (Escherichia coli): > 500 µg
MIC (C. albicans [5]): 32 µg/mL (≈ 71.2 µM)
Inhibition Area at μg, Staph. aureus (Staphylococcus aureus): 500 µg

CC(N1CCN(CCCN2CCCCC2)CC1)C(O)(Cc1ccccc1)Cc1ccccc1 (stereo not shown) [XIX, 1-phenyl-2-benzyl-3-[4'-(γ-piperidinopropyl)-piperazino-1']-butanol-2]
solubility (Solubility in water): 100 mg/mL (≈ 222000 µM)
MIC [1]: 100 µg/mL
MIC (C. albicans [2]): 16 µg/mL
MIC (A. niger [3]): 32 µg/mL
Inhibition Area at μg, Cand. albicans (Candida albicans): 5 µg
Inhibition Area at μg, Asp. niger (Aspergillus niger): 5 µg
Inhibition Area at μg, E. coli (Escherichia coli): 500 µg
MIC (A. niger [4]): 32 µg/mL (≈ 71.2 µM)
MIC (C. albicans [5]): 16 µg/mL (≈ 35.6 µM)
Inhibition Area at μg, Staph. aureus (Staphylococcus aureus): 500 µg

CC(N1CCN(CCN2CCOCC2)CC1)C(O)(Cc1ccccc1)Cc1ccccc1 (stereo not drawn) [V, 1-phenyl-2-benzyl-3-[4'-(β-morpholino-ethyl)-piperazino-1']-butanol-2]
solubility (Solubility in water): 50 mg/mL (≈ 114000 µM)
MIC [1]: 100 µg/mL
MIC (A. niger [3]): 256 µg/mL
Inhibition Area at μg, Cand. albicans (Candida albicans): 50 µg
Inhibition Area at μg, Asp. niger (Aspergillus niger): 50 µg
Inhibition Area at μg, E. coli (Escherichia coli): 500 µg
MIC (A. niger [4]): 64 µg/mL (≈ 146 µM)
MIC (C. albicans [5]): > 1020 µg/mL
Inhibition Area at μg, Staph. aureus (Staphylococcus aureus): 50 µg
MIC (Staph. aureus): 512 µg/mL (≈ 1170 µM)

CC(C(=Cc1ccccc1)Cc1ccccc1)N1CCN(CCN2CCCC2)CC1 (stereo not drawn) [XXIX, 1-phenyl-2-benzyl-3-[4'-(β-pyrrolidino-ethyl)-piperazino-1']-butene-1]
solubility (Solubility in water): 100 mg/mL (≈ 248000 µM)
MIC [1]: 10 µg/mL
MIC (C. albicans [2]): 128 µg/mL
MIC (A. niger [3]): 32 µg/mL
Inhibition Area at μg, Cand. albicans (Candida albicans): 50 µg
Inhibition Area at μg, Asp. niger (Aspergillus niger): 50 µg
Inhibition Area at μg, E. coli (Escherichia coli): 500 µg
MIC (A. niger [4]): 16 µg/mL (≈ 39.6 µM)
MIC (C. albicans [5]): 8 µg/mL (≈ 19.8 µM)
Inhibition Area at μg, Staph. aureus (Staphylococcus aureus): 50 µg
MIC (Staph. aureus): 128 µg/mL (≈ 317 µM)

CC(N1CCN(Cc2ccccn2)CC1)C(O)(Cc1ccccc1)Cc1ccccc1 (stereo not shown) [XXII, 1-phenyl-2-benzyl-3-[4'-(2"-pyridylmethyl)-piperazino-1']-butanol-2]
solubility (Solubility in water): 50 mg/mL (≈ 120000 µM)
MIC [1]: 500 µg/mL
MIC (C. albicans [2]): 512 µg/mL
Inhibition Area at μg, Cand. albicans (Candida albicans): 500 µg
Inhibition Area at μg, Asp. niger (Aspergillus niger): 500 µg
Inhibition Area at μg, E. coli (Escherichia coli): > 500 µg
Inhibition Area at μg, Staph. aureus (Staphylococcus aureus): 50 µg
MIC (Staph. aureus): > 1020 µg/mL

CC(N1CCN(CCN2CCCCC2)CC1)C(O)(Cc1ccccc1)Cc1ccccc1 (stereo not drawn) [IV, 1-phenyl-2-benzyl-3-[4'-(β-piperidino-ethyl)-piperazino-1']-butanol-2]
solubility (Solubility in water): 50 mg/mL (≈ 115000 µM)
MIC [1]: 100 µg/mL
MIC (C. albicans [2]): 32 µg/mL
Inhibition Area at μg, Cand. albicans (Candida albicans): 50 µg
Inhibition Area at μg, Asp. niger (Aspergillus niger): 500 µg
Inhibition Area at μg, E. coli (Escherichia coli): > 500 µg
MIC (C. albicans [5]): 32 µg/mL (≈ 73.5 µM)
Inhibition Area at μg, Staph. aureus (Staphylococcus aureus): 500 µg

CC(N1CCN(CCN(C)Cc2ccccc2)CC1)C(O)(Cc1ccccc1)Cc1ccccc1 (stereo not drawn) [XV, 1-phenyl-2-benzyl-3-[4'-(β-N-methyl-N-benzylamino-ethyl)-piperazino-1']-butanol-2]
solubility (Solubility in water): 100 mg/mL (≈ 212000 µM)
MIC (E. coli): > 1020 µg/mL
MIC (C. albicans [2]): 512 µg/mL
Inhibition Area at μg, Cand. albicans (Candida albicans): 50 µg
Inhibition Area at μg, Asp. niger (Aspergillus niger): 50 µg
Inhibition Area at μg, E. coli (Escherichia coli): 50 µg
MIC (A. niger [4]): 128 µg/mL (≈ 271 µM)
MIC (C. albicans [5]): 16 µg/mL (≈ 33.9 µM)
Inhibition Area at μg, Staph. aureus (Staphylococcus aureus): 50 µg
MIC (Staph. aureus): > 1020 µg/mL

Cc1cccc(CC(O)(Cc2cccc(C)c2)C(C)N2CCN(C)CC2)c1 (stereo not shown) [IL, 1-m-tolyl-2-(m-methyl-benzyl)-3-(4'-methyl-piperazino-1')-butanol-2]
solubility (Solubility in water): 50 mg/mL (≈ 136000 µM)
MIC [1]: 100 µg/mL
MIC (C. albicans [2]): 256 µg/mL
MIC (A. niger [3]): 128 µg/mL
Inhibition Area at μg, Cand. albicans (Candida albicans): 50 µg
Inhibition Area at μg, Asp. niger (Aspergillus niger): 50 µg
Inhibition Area at μg, E. coli (Escherichia coli): 500 µg
MIC (A. niger [4]): 32 µg/mL (≈ 87.3 µM)
MIC (C. albicans [5]): 32 µg/mL (≈ 87.3 µM)
Inhibition Area at μg, Staph. aureus (Staphylococcus aureus): 50 µg
MIC (Staph. aureus): 128 µg/mL (≈ 349 µM)

CC1CCN(CCN2CCN(C(C)C(O)(Cc3ccccc3)Cc3ccccc3)CC2)CC1 (stereo not drawn) [IX, 1-phenyl-2-benzyl-3-{4'-[β-(4"-methyl-piperidino)-ethyl]-piperazino-1'}-butanol-2]
solubility (Solubility in water): 50 mg/mL (≈ 111000 µM)
MIC [1]: 100 µg/mL
MIC (C. albicans [2]): 32 µg/mL
Inhibition Area at μg, Cand. albicans (Candida albicans): 50 µg
Inhibition Area at μg, Asp. niger (Aspergillus niger): 50 µg
Inhibition Area at μg, E. coli (Escherichia coli): 500 µg
MIC (A. niger [4]): 128 µg/mL (≈ 285 µM)
MIC (C. albicans [5]): 16 µg/mL (≈ 35.6 µM)
Inhibition Area at μg, Staph. aureus (Staphylococcus aureus): 500 µg

Reference: patent US3947411A, “Novel 1-aryl-2-arylalkyl-3-or-4-[4'-(substituted-alkyl)piperazino-1']butanols- 2-or-butenes-1, and methods of manufacture thereof” (Warner-Lambert Company, priority 1972, dated 1976)
